Earlier results, collected in PubChem BioAssay AID1259409 (Chemical Carcinogenesis Research Information System (CCRIS), 2018).

Test system: rodent chemically induced tumor inhibition, incidence and multiplicity
Test: CCRIS tumor inhibitor studies

In the case of `C=CC1=C(C)C2=CC3=NC(=C(CC(=O)O)C4=NC(=C(C)C4=C(O)O)C=c4[nH]c(c(C)c4CC)=CC1=N2)C(CCC(=O)O)C3C` (stereo not given), the outcome (Carcinogen: 2-AMINO-3-METHYLIMIDAZO[4,5-F]QUINOLINE [76180-96-6], Dose [Inhibitor]: 0, 0.01% (W/V BASED ON TOTAL CHLORINS) IN DRINKING WATER BEGINNING 1 WK POST CARCINOGEN TREATMENT FOR THE DURATION STUDY, Route [Inhibitor]: ORAL, Species: RAT, Strain/Sex: F344/MALE, Target Tissue: Type of Lesion: SMALL INTESTINE: TUMOR, Dose [Carcinogen]: 0.03% IN DIET FOR FIRST 5 WK (STUDY DURATION: 52 WK), Promoter: NONE) is listed as 0/22 (0%), 2/20 (10%), -%, not significant, the “tumour outcome (control, treated, inhibition, significance)” value (Carcinogen: 2-AMINO-3-METHYLIMIDAZO[4,5-F]QUINOLINE [76180-96-6], Dose [Inhibitor]: 0, 0.01% (W/V BASED ON TOTAL CHLORINS) IN DRINKING WATER BEGINNING 1 WK POST CARCINOGEN TREATMENT FOR THE DURATION STUDY, Route [Inhibitor]: ORAL, Species: RAT, Strain/Sex: F344/MALE, Target Tissue: Type of Lesion: ZYMBAL'S GLAND: TUMOR, Dose [Carcinogen]: 0.03% IN DIET FOR FIRST 5 WK (STUDY DURATION: 52 WK), Promoter: NONE) is listed as 5/22 (23%), 5/20 (25%), -9%, not significant and the “tumour outcome (control, treated, inhibition, significance)” value (Carcinogen: 2-AMINO-3-METHYLIMIDAZO[4,5-F]QUINOLINE [76180-96-6], Dose [Inhibitor]: 0, 0.1% (W/V BASED ON TOTAL CHLORINS) IN DRINKING WATER BEGINNING 1 WK POST CARCINOGEN TREATMENT FOR THE DURATION STUDY, Route [Inhibitor]: ORAL, Species: RAT, Strain/Sex: F344/MALE, Target Tissue: Type of Lesion: COLON: TUMOR, Dose [Carcinogen]: 0.03% IN DIET FOR FIRST 5 WK (STUDY DURATION: 52 WK), Promoter: NONE) is listed as 2/22 (9%), 2/22 (9%), 0%, not significant. For the same compound, the “tumour outcome (control, treated, inhibition, significance)” value (Carcinogen: 2-AMINO-3-METHYLIMIDAZO[4,5-F]QUINOLINE [76180-96-6], Dose [Inhibitor]: 0, 0.1% (W/V BASED ON TOTAL CHLORINS) IN DRINKING WATER BEGINNING 1 WK POST CARCINOGEN TREATMENT FOR THE DURATION STUDY, Route [Inhibitor]: ORAL, Species: RAT, Strain/Sex: F344/MALE, Target Tissue: Type of Lesion: LIVER: TUMOR, Dose [Carcinogen]: 0.03% IN DIET FOR FIRST 5 WK (STUDY DURATION: 52 WK), Promoter: NONE) was 16/22 (73%), 8/22 (36%), 51%, p<0.05, the “tumour outcome (control, treated, inhibition, significance)” value (Carcinogen: 2-AMINO-3-METHYLIMIDAZO[4,5-F]QUINOLINE [76180-96-6], Dose [Inhibitor]: 0, 0.1% (W/V BASED ON TOTAL CHLORINS) IN DRINKING WATER BEGINNING 1 WK POST CARCINOGEN TREATMENT FOR THE DURATION STUDY, Route [Inhibitor]: ORAL, Species: RAT, Strain/Sex: F344/MALE, Target Tissue: Type of Lesion: SKIN: TUMOR, Dose [Carcinogen]: 0.03% IN DIET FOR FIRST 5 WK (STUDY DURATION: 52 WK), Promoter: NONE) was 7/22 (32%), 8/22 (36%), -12.5%, not significant and the outcome (Carcinogen: 2-AMINO-3-METHYLIMIDAZO[4,5-F]QUINOLINE [76180-96-6], Dose [Inhibitor]: 0, 0.1% (W/V BASED ON TOTAL CHLORINS) IN DRINKING WATER BEGINNING 1 WK POST CARCINOGEN TREATMENT FOR THE DURATION STUDY, Route [Inhibitor]: ORAL, Species: RAT, Strain/Sex: F344/MALE, Target Tissue: Type of Lesion: SMALL INTESTINE: TUMOR, Dose [Carcinogen]: 0.03% IN DIET FOR FIRST 5 WK (STUDY DURATION: 52 WK), Promoter: NONE) was 0/22 (0%), 0/22 (0%), 0%, not significant. For the same compound, the “tumour outcome (control, treated, inhibition, significance)” value (Carcinogen: 2-AMINO-3-METHYLIMIDAZO[4,5-F]QUINOLINE [76180-96-6], Dose [Inhibitor]: 0, 0.1% (W/V BASED ON TOTAL CHLORINS) IN DRINKING WATER BEGINNING 1 WK POST CARCINOGEN TREATMENT FOR THE DURATION STUDY, Route [Inhibitor]: ORAL, Species: RAT, Strain/Sex: F344/MALE, Target Tissue: Type of Lesion: ZYMBAL'S GLAND: TUMOR, Dose [Carcinogen]: 0.03% IN DIET FOR FIRST 5 WK (STUDY DURATION: 52 WK), Promoter: NONE) was 5/22 (23%), 3/22 (14%), 39%, not significant, the “tumour outcome (control, treated, inhibition, significance)” value (Carcinogen: 7,12-DIMETHYLBENZ[A]ANTHRACENE [57-97-6], Dose [Inhibitor]: 0, 0.5% IN 0.2 ML DMSO-ACETONE (15:85, V/V) 2X/WK FOR 30 WK 10 MIN PRIOR TO PROMOTER DOSE (STUDY DURATION: 31 WK), Route [Inhibitor]: DERMAL, Species: MOUSE, Strain/Sex: ICR/FEMALE, Target Tissue: Type of Lesion: SKIN: PAPILLOMA, Dose [Carcinogen]: 0.2 UMOL ONCE (STUDY DURATION: 31 WK), Promoter: 12-O-TETRADECANOYLPHORBOL-13-ACETATE [16561-29-8]) was 100%, 40%, 60%, not calculated and the “tumour outcome (control, treated, inhibition, significance)” value (Carcinogen: DIBENZO[A,L]PYRENE [191-30-0], Dose [Inhibitor]: 2052 PPM IN DIET FOR 3 WK BEGINNING 1 WK PRIOR TO FIRST CARCINOGEN DOSE (STUDY DURATION: 11 MONTHS), Route [Inhibitor]: ORAL, Species: FISH, Strain/Sex: SHASTA STRAIN RAINBOW TROUT/MALE,FEMALE, Target Tissue: Type of Lesion: LIVER: TUMOR, Dose [Carcinogen]: 500 PPM IN DIET FOR 2 WK (STUDY DURATION: 11 MONTHS), Promoter: NONE) was 61%, 18%, 70%, p<0.001. For the same compound, the “tumour outcome (control, treated, inhibition, significance)” value (Carcinogen: DIBENZO[A,L]PYRENE [191-30-0], Dose [Inhibitor]: 2052 PPM IN DIET FOR 3 WK BEGINNING 1 WK PRIOR TO FIRST CARCINOGEN DOSE (STUDY DURATION: 11 MONTHS), Route [Inhibitor]: ORAL, Species: FISH, Strain/Sex: SHASTA STRAIN RAINBOW TROUT/MALE,FEMALE, Target Tissue: Type of Lesion: STOMACH: TUMOR, Dose [Carcinogen]: 500 PPM IN DIET FOR 2 WK (STUDY DURATION: 11 MONTHS), Promoter: NONE) was 91%, 34%, 63%, p<0.001, the “tumour outcome (control, treated, inhibition, significance)” value (Carcinogen: DIBENZO[A,L]PYRENE [191-30-0], Dose [Inhibitor]: 2052 PPM IN DIET FOR 3 WK BEGINNING 1 WK PRIOR TO FIRST CARCINOGEN DOSE (STUDY DURATION: 11 MONTHS), Route [Inhibitor]: ORAL, Species: FISH, Strain/Sex: SHASTA STRAIN RAINBOW TROUT/MALE,FEMALE, Target Tissue: Type of Lesion: SWIM BLADDER: TUMOR, Dose [Carcinogen]: 500 PPM IN DIET FOR 2 WK (STUDY DURATION: 11 MONTHS), Promoter: NONE) was 53%, 3%, 94%, p<0.001 and the “tumour outcome (control, treated, inhibition, significance)” value (Carcinogen: DIBENZO[A,L]PYRENE [191-30-0], Dose [Inhibitor]: 4000 PPM IN DIET FOR 5 WK BEGINNING 1 WK PRIOR TO FIRST CARCINOGEN DOSE (STUDY DURATION: 9 MONTHS), Route [Inhibitor]: ORAL, Species: FISH, Strain/Sex: SHASTA STRAIN RAINBOW TROUT/MALE,FEMALE, Target Tissue: Type of Lesion: LIVER: TUMOR, Dose [Carcinogen]: 200 PPM IN DIET FOR 4 WK (STUDY DURATION: 9 MONTHS), Promoter: NONE) was 36%, 13%, 64%, p<0.001. The “tumour outcome (control, treated, inhibition, significance)” value (Carcinogen: DIBENZO[A,L]PYRENE [191-30-0], Dose [Inhibitor]: 4000 PPM IN DIET FOR 5 WK BEGINNING 1 WK PRIOR TO FIRST CARCINOGEN DOSE (STUDY DURATION: 9 MONTHS), Route [Inhibitor]: ORAL, Species: FISH, Strain/Sex: SHASTA STRAIN RAINBOW TROUT/MALE,FEMALE, Target Tissue: Type of Lesion: STOMACH: TUMOR, Dose [Carcinogen]: 200 PPM IN DIET FOR 4 WK (STUDY DURATION: 9 MONTHS), Promoter: NONE) was 48%, 13%, 73%, p<0.001, the “tumour outcome (control, treated, inhibition, significance)” value (Carcinogen: DIBENZO[A,L]PYRENE [191-30-0], Dose [Inhibitor]: 4000 PPM IN DIET FOR 5 WK BEGINNING 1 WK PRIOR TO FIRST CARCINOGEN DOSE (STUDY DURATION: 9 MONTHS), Route [Inhibitor]: ORAL, Species: FISH, Strain/Sex: SHASTA STRAIN RAINBOW TROUT/MALE,FEMALE, Target Tissue: Type of Lesion: SWIM BLADDER: TUMOR, Dose [Carcinogen]: 200 PPM IN DIET FOR 4 WK (STUDY DURATION: 9 MONTHS), Promoter: NONE) was 30%, 5%, 83%, p<0.001 and the outcome (Dose [Inhibitor]: 250 mg/kg chlorophyllin by gavage daily for 10 days (Study duration 18 wk) (Test material solvent: tricaprylin), Route [Inhibitor]: Oral, Species: Rat, Strain/Sex: F344/Male, Target Tissue: Type of Lesion: Liver: GST placental form positive foci. Colon: aberrant crypt foci, Dose [Carcinogen]: 250 ug/kg by gavage daily for 10 days along or in combination with inhibitor (Study duration 18 wk) (Test material solve, Promoter: None) was “liver: 74% reduction in vol % of liver occupied (p<0.001) colon; 63% reduction i”.
